Where “and” joins values, the source holds several entries; their conditions need not be identical. Equal entries are not always repeated.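 Five compound concentrations were applied to cells in 96-well plates for 48 hours; endpoints were derived by simple linear interpolation of the resulting dose-response curve. At the GI50, growth is halved. At the TGI there is no net growth.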
Assays:
Test in all cases: DTP human tumour cell line panel, 48 h
RXF 393 renal = tested on: RXF 393 renal
HCT-15 colon = tested on: HCT-15 colon
SK-MEL-28 melanoma = tested on: SK-MEL-28 melanoma
NCI-H23 lung = tested on: NCI-H23 lung
UO-31 renal = tested on: UO-31 renal
SNB-75 CNS = tested on: SNB-75 CNS
OVCAR-3 ovarian = tested on: OVCAR-3 ovarian
IGROV1 ovarian = tested on: IGROV1 ovarian
HL-60(TB) leukemia = tested on: HL-60(TB) leukemia
DU-145 prostate = tested on: DU-145 prostate
HS 578T breast = tested on: HS 578T breast

| SMILES | TGI (RXF 393 renal) | TGI (HCT-15 colon) | TGI (SK-MEL-28 melanoma) | TGI (NCI-H23 lung) | TGI (UO-31 renal) | TGI (SNB-75 CNS) | TGI (OVCAR-3 ovarian) | TGI (IGROV1 ovarian) | TGI (HL-60(TB) leukemia) | TGI (DU-145 prostate) | TGI (HS 578T breast) | GI50 (HCT-15 colon) | GI50 (NCI-H23 lung) |
| --- | --- | --- | --- | --- | --- | --- | --- | --- | --- | --- | --- | --- | --- |
| COC[C@@H](Cc1ccc(OC)c(OC)c1)[C@@H](COC)Cc1ccc(OC)c(OC)c1 | > 100 µM | > 100 µM | > 100 µM | > 100 µM | > 100 µM | > 100 µM | > 100 µM | > 100 µM | > 100 µM |  |  |  |  |
| CCC1(O)CC(OC2CC(N(C)C)C(OC3CC(O)C(OC4CCC(=O)C(C)O4)C(C)O3)C(C)O2)c2c(O)c3c(c(O)c2C1C(=O)OC)C(=O)c1cccc(O)c1C3=O (centres undefined) |  | 0.0543 µM and 0.09 µM | 0.0837 µM and 0.0571 µM | 0.112 µM and 0.031 µM | 0.0292 µM |  | 10.3 µM | 0.0281 µM | 0.0496 µM | 0.124 µM |  |  |  |
| CN(CCO)/N=N/c1[nH]ncc1C(N)=O | > 100 µM | > 100 µM | > 100 µM | > 100 µM | > 100 µM | > 100 µM | > 100 µM | > 100 µM | > 100 µM |  |  |  |  |
| O=P1(c2ccccc2)C2=CCC=CC2C(c2ccccc2)N1Cc1ccccc1 (centres undefined) |  | 28.1 µM |  | 24.8 µM | 25.8 µM |  |  | 32.9 µM | 39.9 µM | 31.4 µM | 43.9 µM |  |  |
| CN1C(=O)N(C)C2(CCN(CCCCCCF)CC2)C1=O | > 100 µM | > 100 µM | > 100 µM | > 100 µM | > 100 µM | > 100 µM | > 100 µM | > 100 µM | > 100 µM | > 100 µM |  |  |  |
| COC(=O)[C@H](CCSC)NC(=O)c1ccc(CNC(=O)/C(C)=C/c2ccccc2)cc1 | 51.1 µM | > 100 µM | 64.7 µM | > 100 µM | > 100 µM | 28.4 µM | > 100 µM | > 100 µM |  | > 100 µM |  |  |  |
| COC(=O)C(Cc1nc2ccccc2[nH]c1=O)C(=O)C(=O)Nc1cc(C(F)(F)F)ccc1Cl (centres undefined) | 46.3 µM | 26.7 µM | > 100 µM | 30.4 µM | 28.9 µM | 46.1 µM | 25.4 µM | 25.3 µM | 54.2 µM |  | 43.2 µM |  |  |
| COc1ccccc1NCC(=O)Nn1c(C)nc2ccc(S(=O)(=O)Nc3ccccc3OC)cc2c1=O |  | > 100 µM | > 100 µM | > 100 µM | > 100 µM | > 100 µM | > 100 µM | > 100 µM | > 100 µM | > 100 µM | > 100 µM |  |  |
| N#C/C(=C\c1ccccc1Br)C(=O)c1ccccc1 | > 100 µM | > 47.2 µM | > 59.1 µM | > 62.2 µM | > 53.9 µM |  | > 69.2 µM |  | 15.9 µM |  |  |  |  |
| O=C1N[C@@H](COc2ccc(C=Nc3ccc(CCc4ccc(N=Cc5ccc(OC[C@@H]6COC(=O)N6)cc5)cc4)cc3)cc2)CO1 | > 100 µM | > 100 µM | > 100 µM |  | > 100 µM |  | > 100 µM | > 100 µM | > 100 µM | > 100 µM | > 100 µM |  |  |
| COc1ccccc1N=C1SCCN1C(=S)Nc1ccc(S(=O)(=O)/N=C/N(C)C)cc1 | 45.8 µM | > 100 µM | > 100 µM | 95.9 µM | > 100 µM | 98.4 µM | > 100 µM |  | > 100 µM | > 100 µM |  |  |  |
| CN(C)CCNc1nc2c(no[n+]2[O-])c2ccccc12 | 38.6 µM | 57.4 µM | > 100 µM | > 100 µM | 49.1 µM | 52.4 µM | 71.7 µM | 53 µM |  | > 100 µM | 76.6 µM |  |  |
| CC(=O)O[C@H]1CC[C@H]2[C@@H]3CCC(C(C)=O)[C@H](C(=O)O)[C@H]3CC[C@]12C (some centres undefined) | > 100 µM | > 100 µM | > 100 µM | > 100 µM | > 100 µM |  | > 100 µM | > 100 µM | > 100 µM |  | > 100 µM |  |  |
| CCCCCCCCCCSCC(CO)NC(=O)/C=C/c1c(C)[nH]c(=O)[nH]c1=O (centres undefined) | > 25.7 µM | > 50 µM | > 50 µM | 14.3 µM and > 50 µM | > 50 µM | 12.9 µM and 18.1 µM | 3.05 µM and 9.12 µM | > 50 µM | > 35.2 µM and 6.35 µM |  |  | 5.55 µM and 14.7 µM | 1.76 µM and 5.54 µM |
| CC(=O)n1ccc2c(Cl)ncnc21 | > 100 µM | > 100 µM | > 100 µM | > 100 µM | > 100 µM | > 100 µM | > 100 µM | > 100 µM | > 100 µM |  |  |  |  |
| CC(/C=N/NC1=NCCCN1)=N\NC1=NCCCN1 | > 100 µM | > 100 µM | > 100 µM | > 100 µM | > 100 µM | > 100 µM | > 100 µM | > 100 µM |  |  | > 100 µM |  |  |
| COc1cccc(-c2cc(=O)c3cc(Cl)cnc3[nH]2)c1 | > 100 µM | 31.9 µM | > 100 µM | 8.3 µM | > 62 µM | > 100 µM | > 43 µM | > 100 µM |  | > 36.4 µM | 47.6 µM |  |  |
| COc1ccccc1NS(=O)(=O)c1ccc2ncn(NS(=O)(=O)c3ccc(Cl)cc3)c(=O)c2c1 |  | > 100 µM | > 100 µM | > 100 µM | > 100 µM | > 100 µM | > 100 µM | > 100 µM | > 100 µM | > 100 µM | > 100 µM |  |  |
| CC(C)N(C(C)C)P(OCCC#N)OC1CC(n2cnc3c(=O)[nH]cnc32)OC1COC(=O)NCCCCCCNC(=O)OC(C)(C)c1ccc(-c2ccccc2)cc1 (centres undefined) | 74.3 µM | > 100 µM | 57 µM | 50.5 µM | 31.3 µM | 53.7 µM |  | 38.4 µM | 36.4 µM |  |  |  |  |
| C=CCC(SC)C1=C(C)C(=O)c2ccccc21 (centres undefined) | > 10 µM | > 10 µM | > 10 µM | > 10 µM | > 10 µM |  | > 10 µM | > 10 µM |  | > 10 µM |  |  |  |
| Cc1nc2c(=O)[nH]c3ccc(Cl)cc3c2o1 | > 100 µM | > 100 µM |  | > 100 µM | > 100 µM | > 100 µM | > 100 µM | > 100 µM |  |  | > 100 µM |  |  |
| CCN(CC)CCNc1ccc2ncn3c4cc(=O)ccc4c(O)c1c23 | 3.68 µM | 17 µM | 16.9 µM | 14.6 µM | 22 µM | 21.6 µM | 6.36 µM | 24.3 µM | 11.9 µM |  |  |  |  |
| CC(=O)CC(=O)/C=C/c1cccs1 |  | > 100 µM |  | > 100 µM | > 100 µM |  | > 100 µM | > 100 µM | 72.5 µM |  |  |  |  |
